Results on 5 compounds are retold here after patent publication US9309187B2, “EP2 receptor agonists” (TAKEDA GMBH, priority 2012, dated 2016).

Test [1] concerns plasma TNFα after i.v. LPS. The experiment in a line: In vivo assay: LPS-induced TNFα release in mice. Conditions: Mus musculus; p.o. 1 h prior to i.v. LPS 100 μg/kg; plasma TNFα 1 h after LPS. Set-up: species or system C57BL/6 mice. On the procedure: In Vivo Assay: LPS-Induced TNFα Release in Mice
Intravenously administration of lipopolysaccharide (LPS) causes a systemic inflammation characterised by release of pro-inflammatory cytokines, e.g. tumor necrosis factor alpha (TNFα). Selective EP2 agonists are administered per oral 1 h prior intravenously LPS challenge in mice. The anti-inflammatory activity of the selective EP2 agonists is assessed based on TNFα levels in blood plasma 1 h after LPS challenge.
Female C57BL/6 mice weighing 20-25 g were used. Mice were delivered 1 week prior to the experiments and had free access to water and food.
The test compound was mixed with 1.33% polyethylenglycol 400 (PEG400, Merck, Darmstadt, Germany) and subsequently suspended in 2% methocel solution (hypromellose, Sigma, Steinheim, Germany) using the Covaris S2X System (K Biosciences Ltd.; Hoddesdon; United Kingdom). The aimed doses were prepared by dilution series from the stock suspension, which was prepared for the administration of the highest dose in each experiment.
The administered volume of the compound suspension is 10 mL/kg. On day of the experiment the mouse body weights were documented to calculate the volume to be administered. LPS challenged control animals received drug-free vehicle solution as placebo. Test compounds and vehicle were administered by oral gavage 1 h prior to LPS challenge.
LPS (from Escherichia coli 055:B5, Sigma, Steinheim, Germany) was solubilised in 0.9% sterile NaCl solution (B. Braun Melsungen AG, Melsungen, Germany) containing 0.1% hydroxylamine (Sigma, Steinheim, Germany). LPS is intravenously (i.v.) injected at a dose of 100 μg/kg (5 mL/kg b.w.) 1 h after compound or vehicle administration.
One hour after LPS-challenge, the animals were sacrificed by inhalative isoflurane anaesthesia and heparinised blood was obtained by retroorbital bleeding. Blood was centrifuged (21,000×g, 4° C., 10 min), and plasma samples were kept frozen at −20° C. until determination of TNFα levels by ELISA. TNFα was measured with a commercially available ELISA-Kit (Quantikine® Immunoassay Mouse TNFα, R&D Systems, Minneapolis, USA).
The compound effect on TNFα release was calculated individually in percent (%) for each compound treated animal in relation to the mean TNFα level of the vehicle treated LPS-challenged control group: % effect=(Y−K)/K*100 • with defining: • Y=plasma TNFα concentration of the compound treated animal • K=mean plasma TNFα concentration of the vehicle treated group
Statistical analysis was performed on the primary TNFα concentrations by One-Way ANOVA and Dunnett's Multiple Comparison test vs. vehicle-treated control group.

Test [2] relates to TNFalpha release in human whole blood stimulated with LPS. The experiment in a line: Inhibition of LPS induced TNFalpha release in human whole blood. The class given is cell-based. The following applies: 1 microg/mL LPS, 4 hours, reported as range bins, read-out: Inhibition of LPS induced TNFalpha release in human whole blood pIC30 (-log IC30). On the procedure: Method for Measuring the Inhibition of TNFalpha Release in Human Whole Blood Stimulated with LPS:
Assay was performed with some modifications of the method described by Hatzelmann and Schudt (Hatzelmann and Schudt (2001) JPET 297: 267-279) and the protocol “drawing of venous blood from healthy volunteers for in vitro studies” was approved by the ethics committee of the Landesärztekammer Baden Württemberg in Stuttgart.
Heparinised venous blood was equilibrated to assay conditions for 1 hour at room temperature upon blood drawing. Immediately thereafter, 200 microL whole blood per sample were pre-incubated with 25 microL of a serial dilution of test compound or piclamilast as positive control for 30 min. at 37° C. After pre-incubation blood samples were stimulated by the addition of 25 microL lipopolysaccharide (LPS) (Sigma, Aldrich) per sample resulting in a final concentration of 1 microg/mL LPS and a final volume of 250 microL. Cells were incubated for 4 hours at 37° C. TNFalpha levels were determined from plasma that was obtained by a centrifugation step and transferring the supernatant to a new 96-well plate which was again centrifuged and clear plasma supernatant was used for the measurement of TNFalpha via alphaLISA Technology according to manufacture protocol (Perkin Elmer).
Whole blood samples that were not stimulated with LPS were used as control and set for 100% inhibition. Whole blood samples that were stimulated with LPS and solvent instead of test compound were set as 0% inhibition. Percent inhibition was calculated based on these controls for each sample and since most compounds achieved saturating maximal inhibition of 60% a pIC30 value was calculated with GraphPad Prism Software.
For the following compounds the inhibitory values of TNFalpha release [determined as −log IC30=pIC30] in the human whole blood assay between 4.5 and 4.9, between 5.0 and 5.9 and between 6.0 and 6.9 have been determined. The numbers of the compounds correspond to the examples numbers.
Inhibition of LPS Induced TNFalpha Release Assay in Human Whole Blood: pIC30

Test [3] deals with T1, human prostanoid receptor EP2 (Homo sapiens, UniProt P43116).
T1 construct: expressed in transfected cells; host or cells: CHO-K1 (CHOp6CreLuc-huEP2)
T1 sequence (P43116 whole entry): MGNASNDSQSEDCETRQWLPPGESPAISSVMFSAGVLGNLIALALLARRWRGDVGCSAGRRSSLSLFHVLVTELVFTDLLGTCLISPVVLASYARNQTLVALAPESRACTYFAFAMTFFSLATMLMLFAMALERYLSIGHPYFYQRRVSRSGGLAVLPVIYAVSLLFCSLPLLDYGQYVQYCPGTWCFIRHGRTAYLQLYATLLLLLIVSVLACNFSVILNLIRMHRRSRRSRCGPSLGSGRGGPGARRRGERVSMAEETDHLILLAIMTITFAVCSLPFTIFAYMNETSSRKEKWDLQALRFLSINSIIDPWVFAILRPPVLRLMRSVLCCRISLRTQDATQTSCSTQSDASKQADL
As to the kind of experiment: EP2 cAMP release assay in CHOp6CreLuc-huEP2 cells (CRE-luciferase readout). The following applies: CHOp6CreLuc-huEP2 cells, 4 hours at 37° C.; reported as range bins; read-out: EP2 cAMP release assay pEC50 (-log EC50) (converted). It is filed as cell-based. The procedure: Method for Measuring cAMP Release in Human EP2 Stably Transfectant Cells:
The potency and efficacy of EP2 agonists have been determined via measuring cAMP release in stably transfectant CHO-K1 cell expressing the human prostanoid receptor EP2 and luciferase enzyme regulated via a 6 times CRE (cAMP response element) containing transcriptional promoter. CHOp6CreLuc-huEP2 cells were seeded into 384-well plate (1000 cells per well) in DMEM/F12 (Dulbecco's Modified Eagle Medium/Nutrient Mixture F12) cell culture medium containing 2% FCS (Fetal Calf Serum) and 500 μg/ml G418 24 hours prior to the experiment. Test compound was added as serial dilutions while keeping the final DMSO concentration constant in each well. […] Cells were incubated together with test compound or butaprost for 4 hours at 37° C. The cAMP release was determined indirectly via luciferase activity that directly correlated to the amount of luciferase enzyme expressed in response to cAMP regulated promoter activity. The luciferase activity was determined by addition of luciferin containing buffer and subsequent quantification of resulting luminescence. Each sample was measured in quadruplicates per experiment and half-maximal effective concentration (EC50) and relative maximal effect compared to butaprost was determined from 3 independent experiments with GraphPad Prism Software. A compound that achieved over 80% of the maximal effect of butaprost was considered as full agonist.
For the following compounds the potency was determined in the cAMP release assay applying human EP2 transfectant CHOp6CreLuc-huEP2 cells. […] The numbers of the compounds correspond to the examples numbers.
EP2 cAMP Release Assay: pEC50

The structures appear in SMILES notation.

As for `O=C(O)/C=C/c1ccc(Cl)c(NC(=O)c2cc(-c3ccccc3)cc3ccccc23)c1` [Example 3, (2E)-3-(4-chloro-3-{[(3-phenylnaphthalen-1-yl)carbonyl]amino}phenyl)prop-2-enoic acid], the ED50 in test [1] lay in the range of 0.1 to 3 mg/kg. The IC30 in test [2] fell in the range of 12600 to 31600 nM. The half-maximal effective concentration (EC50) in test [3] was 0.00631 to 0.1 nM.
On the same counts, the results for `O=C(O)/C=C/c1ccc(F)c(NC(=O)c2cc(-c3ccccc3)cc3ccccc23)c1` [Example 2, (2E)-3-(4-fluoro-3-{[(3-phenylnaphthalen-1-yl)carbonyl]amino}phenyl)prop-2-enoic acid] are 0.1 to 3 mg/kg, 126 to 1000 nM and 0.00631 to 0.1 nM.
On the same counts, the results for `O=C(O)/C=C/c1cccc(NC(=O)c2cc(-c3ccccc3)cc3ccccc23)c1` [Example 1, (2E)-3-(3-{[(3-phenylnaphthalen-1-yl)carbonyl]amino}phenyl)prop-2-enoic acid] are 0.1 to 3 mg/kg, 126 to 1000 nM and 0.00631 to 0.1 nM.
In the case of `O=C(O)/C=C/c1ccc(F)c(NC(=O)c2cc(-c3ccccc3F)cc3ccccc23)c1` [Example 9, (2E)-3-{3-[({3-[2-fluorophenyl]naphthalen-1-yl}carbonyl)amino]-4fluorophenyl}prop-2-enoic acid], the ED50 in test [1] lay within 0.1 to 3 mg/kg. The IC30 in test [2] is 126 to 1000 nM. For the same compound, the 50% effective concentration (EC50) in test [3] was 0.00631 to 0.1 nM.
For `O=C(O)/C=C/c1ccc(F)c(NC(=O)c2cc(-c3cccc(F)c3)cc3ccccc23)c1` [Example 10, (2E)-3-{3-[({3-[3-fluorophenyl]naphthalen-1-yl}carbonyl)amino]-4fluorophenyl}prop-2-enoic acid], in that order: 0.1 to 3 mg/kg, 126 to 1000 nM and 0.00631 to 0.1 nM.

The ED50 is the dose at which the effect has come halfway, by size or by number of responders. A lower ED50 goes with an effect at a small dose. In general, IC30 refers to the concentration needed for an effect of 30%. By EC50 is commonly meant the concentration giving half of the maximal effect.
